Read-outs that look alike come from different tables or passages of the source.
How the values were obtained:
Type in all cases: cell-based
Aca-ACR-16 [1] = target: T1, Aca-ACR-16 (Ancylostoma caninum, UniProt A0A5C1L5J1); test: two-electrode voltage clamp, Xenopus oocytes, peak current
T1 sequence (A0A5C1L5J1 21-497): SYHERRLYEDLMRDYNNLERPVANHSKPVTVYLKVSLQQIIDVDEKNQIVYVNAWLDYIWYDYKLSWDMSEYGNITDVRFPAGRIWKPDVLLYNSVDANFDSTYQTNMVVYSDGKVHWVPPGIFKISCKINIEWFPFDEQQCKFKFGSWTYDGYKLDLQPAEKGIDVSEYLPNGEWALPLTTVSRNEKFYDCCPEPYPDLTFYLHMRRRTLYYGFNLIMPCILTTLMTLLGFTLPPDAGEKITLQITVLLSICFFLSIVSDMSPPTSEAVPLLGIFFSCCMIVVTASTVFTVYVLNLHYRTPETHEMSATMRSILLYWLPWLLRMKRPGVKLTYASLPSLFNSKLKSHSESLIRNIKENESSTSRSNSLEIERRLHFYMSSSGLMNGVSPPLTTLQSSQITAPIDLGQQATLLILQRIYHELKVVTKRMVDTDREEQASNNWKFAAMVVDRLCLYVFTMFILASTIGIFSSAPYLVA

Aca-ACR-16 [2] = target: T1, Aca-ACR-16; test: two-electrode voltage clamp, Xenopus oocytes, inhibition of ACh current; conditions: read-out: % inhibition at 10 μM
Aca-ACR-16 [3] = target: T1, Aca-ACR-16; test: as above; conditions: read-out: % inhibition at 10 μM; remark: listed apart in the source
Aca-ACR-16 [4] = target: T1, Aca-ACR-16; test: two-electrode voltage clamp, Xenopus oocytes, peak current; conditions: agonist; 10 s application; co-expressed with Asu-RIC-3

| Compound | inhibition at 10 µM (Aca-ACR-16 [2]) [%] | also measured |
| --- | --- | --- |
| CC(=O)OCC[N+](C)(C)C [acetylcholine] |  | EC50 (Aca-ACR-16 [1]): 50 µM |
| COc1cc2c3cc1Oc1cc(ccc1O)C[C@@H]1c4c(cc(OC)c(O)c4Oc4ccc(cc4)C[C@@H]3N(C)CC2)CC[N+]1(C)C [d-tubocurarine] | 100 ± 0.1 |  |
| CN1C(=O)[C@]23C[C@H]4C(C)(C)[C@]5(CNc6c5ccc5c6OC=CC(C)(C)O5)C[C@@]41CN2CC[C@@]3(C)O [derquantel] | 72 ± 5.6 |  |
| CO[C@H]1CC=C2CCN3CCC4=C(CC(=O)OC4)[C@]23C1 [dihydro-β-erythroidine] |  | inhibition at 10 µM (Aca-ACR-16 [3]): 98.8 ± 0.4% |
| Clc1ccc(C2CC3CCC2N3)cn1 (stereo not drawn) [epibatidine] |  | % of 100 μM ACh current at 100 μM (Aca-ACR-16 [4]): 85.0 ± 4.0% |
| CNC1(C)C2CCC(C2)C1(C)C (stereo not drawn) [mecamylamine] | 98.8 ± 0.6 |  |

Source: PMC7869652 (Invertebrate neuroscience : IN, 2019)
